According to article PMC4929455 (2016):
Where a SMILES comes first, the peptide text is derived from it.

Legend:
[1] = tested on: T:A (DNA, duplex) TCACCAGTCGTA/TACGACTGGTGA; assay: UV melting at 260 nm; details: 100 mM NaCl; 10 mM sodium phosphate pH 7.0, 1 mM EDTA; 5 μM DNA, 5 μM C1
[2] = tested on: AP site-containing oligodeoxynucleotide (unlabeled) (DNA, single strand, natural AP site (from dU by UDG) at 4) TCANCGT; assay: ESI-MS / CID of reduced covalent complex; details: 100 mM Hepes-K pH 7.3, 50 mM NaB(CN)H3, 37 °C overnight
[3] = tested on: AP site-containing oligodeoxynucleotide (32P-labeled) (DNA, single strand, natural AP site (from dU by UDG) at 4) TCANCGT; assay: cyanoborohydride trapping, denaturing gel shift; details: 100 mM Hepes-K pH 7.3, 50 mM NaB(CN)H3, 18 °C overnight, covalent
[4] = tested on: dU-containing oligodeoxynucleotide 5'-TCA(dU)CGT-3' (DNA, single strand, 2'-deoxyuridine at 4) TCAUCGT; assay: cyanoborohydride trapping, denaturing gel shift; details: 100 mM Hepes-K pH 7.3, 50 mM NaB(CN)H3, 18 °C overnight; 10 μM C1; covalent trapping only
[5] = tested on: T:THF (DNA, mismatch bulge abasic, tetrahydrofuran (THF) abasic analogue at 6 of strand 1, opposite T) TCACCNGTCGTA/TACGACTGGTGA; assay: UV melting at 260 nm; details: 100 mM NaCl; 10 mM sodium phosphate pH 7.0, 1 mM EDTA; 5 μM DNA, 5 μM C1
[6] = tested on: T:A (DNA, duplex) TCACCAGTCGTA/TACGACTGGTGA; assay: CD forward titration, ICD at 500 nm; details: 100 mM NaCl; 10 mM sodium phosphate pH 7.0, 1 mM EDTA, 15 °C; apparent; non-specific binding
[7] = tested on: T:THF (DNA, mismatch bulge abasic, tetrahydrofuran (THF) abasic analogue at 6 of strand 1, opposite T) TCACCNGTCGTA/TACGACTGGTGA; assay: CD forward titration, ICD at 500 nm; details: 100 mM NaCl, 10 mM sodium phosphate pH 7.0, 1 mM EDTA, 15 °C, apparent
[8] = tested on: T:AP (DNA, mismatch bulge abasic, natural apurinic/apyrimidinic site (from dU by UDG) at 6 of strand 1, opposite T) TCACCNGTCGTA/TACGACTGGTGA; assay: CD forward titration, ICD at 500 nm; details: 100 mM NaCl; 10 mM sodium phosphate pH 7.0, 1 mM EDTA, 15 °C; apparent; corrected for non-specific interactions (uncorrected 44 ± 5)

| SMILES | ΔTm [1] [°C] | binding [2] | binding ([3]; 10 μM C1, ~80% trapped) | binding [4] | ΔTm [5] [°C] | KD [6] [µM] | KD ([7]; corrected for non-specific interactions (uncorrected 29 ± 1)) [µM] | KD [8] [µM] | KD ([7]; corrected for non-specific interactions (uncorrected 35 ± 1)) [µM] | binding ([3]; 2 mM KWKK) |
| --- | --- | --- | --- | --- | --- | --- | --- | --- | --- | --- |
| CNCC#Cc1c(F)ccc2c1/C(=C/c1[nH]ccc1OC)C(=O)N2 | 1 | yes | yes | no | 6.3 | 64 ± 3 | 22 ± 1 | – | – | – |
| COc1cc[nH]c1/C=C1\C(=O)Nc2ccc(F)c(C#CC3(O)CCNCC3)c21 | – | – | – | – | – | 69 ± 14 | – | 28 ± 2 | 28 ± 1 | – |
| NCCCC[C@H](NC(=O)[C@H](CCCCN)NC(=O)[C@H](Cc1c[nH]c2ccccc12)NC(=O)[C@@H](N)CCCCN)C(=O)O (H-KWKK-OH) | – | – | – | – | – | – | – | – | – | yes |
